According to US8641948B2, “Method of making solid dispersions of highly crystalline therapeutic compounds” (Novartis AG, priority 2006, dated 2014):

Assay: Stability of the crystalline therapeutic compound (heat, light, oxidation)
Assay type: physicochemical
Description: An example of a poorly water soluble therapeutic compound appropriate for the present invention is midostaurin which is a protein Kinase C inhibitor.

## CO[C@@H]1[C@H](N(C)C(=O)c2ccccc2)C[C@H]2O[C@]1(C)n1c3ccccc3c3c4c(c5c6ccccc6n2c5c31)C(=O)NC4 [midostaurin]
  stability to light and oxidation: light-sensitive and oxidizes
At melting point of about 260° C.
  thermal stability: decomposes upon melting
